Several values for one entry are separate records, joined by “and”; a condition that tells them apart may be missing. Identical values can stand only once.
What was measured:
[1] = system: FeCl3-induced arterial thrombosis in C57BL/6 mice; assay: FeCl3-induced carotid artery thrombosis in mice, Doppler blood flow (Example 2); format: in vivo; settings: for efficacy in blocking thrombus formation: relatively high FeCl3 concentrations, unless an extremely high drug concentration was used
Description: Mice were anesthetized with gas inhalation comprised of 30% oxygen (0.3 liter/min; Airgas East, Inc., Salem, N.H.) and 70% nitrous oxide (0.7 liter/min; Airgas East, Inc., Salem, N.H.). […] Louis, Mo.) to the adventitial surface of the carotid artery immediately proximal to the flow probe for 3 min and then removed. The carotid blood flow was monitored at 1, 5, 10, 20, 30 min or some times up to 60 min. Heparin was purchased from American Pharmaceutical Partners, Inc. (Los Angeles, Calif.); mice were infused with 10, 50, 200 and 1000 IU/kg, i.v. immediately prior to 2.5 or 5% FeCl3 treatment on the carotid artery. […] Aspirin (acetylsalicylic acid) and MRS2179 were purchased from Sigma. […] Data in text and figures are mean±standard errors for the indicated number (N) of animals.

[2] = system: 5% FeCl3-induced arterial thrombosis in C57BL/6 mice
Description: Adult mice (18-25 g, both male and female) were used for thrombosis study. Following anesthesia by pentobarbital (50 mg/kg, i.p.), an incision of the skin was made directly on top of the right common carotid artery region. The fascia was then blunt dissected and a segment of the […] common carotid artery was exposed. A Transonic flow probe (0.5 VB) was placed on the artery with gel to obtain the baseline flow readings (as time 0) via a Transonic […] Doppler flowmeter. Two pieces of filter paper (1×11⁄2 mm) pre-soaked with 5% FeCl3 solution were placed beneath and above the carotid artery for 3 min to induce thrombosis. The filter papers were removed and rinsed with saline. The blood flow was recorded every 5, 10, 20 and 30 min of FeCl3 treatment. […] Clopidogrel was administrated for two days. […] Data are illustrated as mean±standard errors using indicated number (N) of animals. Statistical comparisons were made by analysis of variance (ANOVA; Fisher's protected least squares difference) and values were considered to be significant at p<0.05.

[3] = system: tail bleeding time in C57BL/6 mice; assay: Mouse tail bleeding time
Description: Mice were anesthetized as described above and placed on a 37° C. heating pad. About 2-4 mm from the tip of mouse tail (in about 1 mm diameter) was cut with a disposable surgical blade. After transection, the tail was immediately placed into a 50-ml falcon tube filled with 37° C. saline and the bleeding time was recorded up to 30 min. Bleeding time over 30 min was considered as bleeding off scale.
Both thrombosis and bleeding studies were conducted within 2-4 hr after the second day of oral dosing.

[4] = cited from earlier work

CNc1ncnc2c1ncn2[C@H]1C[C@H](OP(=O)(O)O)[C@@H](COP(=O)(O)O)O1 [MRS2179]
effective dose ([1]; 2.5% FeCl3-induced thrombosis, i.v.): 150 mg/kg | potency in blocking FeCl3-induced thrombosis ([1]; 2.5% FeCl3, compared with P2Y12 antagonists): less potent | efficacy in blocking thrombus formation [1]: failed to show efficacy

CC(=O)Oc1ccccc1C(=O)O [aspirin, acetylsalicylic acid]
effect in blocking thrombosis ([1]; 2.5% FeCl3-induced thrombosis, aspirin 10 and 30 mg/kg i.p.): Very little effect | efficacy in blocking thrombus formation [1]: failed to show efficacy

CSCCNc1nc(SCCC(F)(F)F)nc2c1ncn2[C@@H]1O[C@H](COP(=O)(O)OP(=O)(O)C(Cl)(Cl)P(=O)(O)O)[C@@H](O)[C@H]1O [cangrelor]
efficacy in 2.5% versus 5% FeCl3-induced thrombosis ([1]; 2.5% and 5% FeCl3): differential efficacy | efficacy in blocking thrombus formation [1]: failed to show efficacy

COC(=O)[C@H](c1ccccc1Cl)N1CCc2sccc2C1 [clopidogrel]
protection from thrombosis ([2]; 10 mg/kg): failed to protect | animals that retained vascular patency ([2]; 100 mg/kg p.o.): 6 out of 9 | AUC of the relative Doppler blood flow, over controls ([2]; 100 mg/kg p.o., p<0.01): 3.7 fold | antithrombotic effect ([2]; clinically relevant dose 1 mg/kg p.o.): No antithrombotic effect | dose needed for antithrombotic effect ([2]; p.o.): > 30 mg/kg | prolongation in bleeding time ([3]; 1 mg/kg p.o.): no prolongation | animals bleeding off scale (over 30 min) ([3]; 10 mg/kg p.o.): 75% | increase in bleeding time ([3]; 10 mg/kg p.o., p<0.01, n=8): 11 fold and 10.9 fold | animals bleeding off scale (over 30 min) ([3]; 30 mg/kg (data not shown)): 100% | vascular patency ([1]; 2.5% FeCl3-induced thrombosis, 1 mg/kg p.o.): maintained in some | vascular patency (animals in which maintained) ([1]; 2.5% FeCl3-induced thrombosis, 3 mg/kg p.o.): all | dose required to show efficacy ([1]; 5% FeCl3-induced thrombosis, p.o.): 100 mg/kg | efficacy in blocking thrombus formation [1]: failed to show efficacy

heparin
clotting activity ([4]; at concentrations greater than 4 ug/ml): not detectable | activated partial thromboplastin time (aPTT) assay times ([4]; at therapeutic range 1 to less than 3 ug/ml plasma): 35 to 100 s | vascular patency ([1]; 2.5% FeCl3-induced thrombosis, 200 IU/kg i.v.): maintained | dose required to inhibit thrombosis ([1]; 5% FeCl3-induced thrombosis, i.v.): 1000 IU/kg | efficacy in blocking thrombus formation [1]: failed to show efficacy
